Measurements taken from ChEMBL document CHEMBL3045268, “Synthesis, anticancer, and molecular docking studies of pyranone derivatives” (Med Chem Res, 2013).

Columns and labels:
Mus musculus [1] = assay: Toxicity in Mus musculus (mouse) transplanted with mouse EAC cells assessed as increase in hemoglobin level at 75 mg/kg, ip measured on day 13 post tumor implantation (reference value: 7.5 +/- 0.01 g%); type: organism-based, Ehrlich; design: dose 75 mg/kg, route intraperitoneal; conditions: in vivo
[2] = Antitumor activity against Mus musculus (mouse) EAC cells transplanted in mouse assessed as decrease in body weight at 75 mg/kg, ip measured up to 11 days relative to vehicle-treated control; type: functional, Ehrlich; design: scale not given: the % may be the effect or the level left; conditions: route intraperitoneal
Mus musculus [3] = assay: Toxicity in Mus musculus (mouse) transplanted with mouse EAC cells assessed as effect on monocytes level at 75 mg/kg, ip measured on day 13 post tumor implantation (reference value: 1.4 +/- 0.24%); type: organism-based, Ehrlich; design: dose 75 mg/kg, route intraperitoneal; conditions: in vivo
Mus musculus [4] = assay: Toxicity in Mus musculus (mouse) transplanted with mouse EAC cells assessed as effect on RBC level at 75 mg/kg, ip measured on day 13 post tumor implantation (reference value: 3.95 +/- 0.32 million/mm3); type: organism-based, Ehrlich; design: dose 75 mg/kg, route intraperitoneal; conditions: in vivo
[5] = Antitumor activity against Mus musculus (mouse) EAC cells transplanted in mouse assessed as increase in life span at 75 mg/kg, ip relative to vehicle-treated control; type: functional, Ehrlich; conditions: route intraperitoneal
Mus musculus [6] = assay: Toxicity in Mus musculus (mouse) transplanted with mouse EAC cells assessed as effect on neutrophils level at 75 mg/kg, ip measured on day 13 post tumor implantation (reference value: 60.4 +/- 1.5%); type: organism-based, Ehrlich; design: dose 75 mg/kg, route intraperitoneal; conditions: in vivo
Mus musculus [7] = assay: Toxicity in Mus musculus (mouse) transplanted with mouse EAC cells assessed as effect on WBC level measured per 10^3 cells at 75 mg/kg, ip on day 13 post tumor implantation (reference value: 19.49 +/- 0.26 mm3); type: organism-based, Ehrlich; design: dose 75 mg/kg, route intraperitoneal; conditions: in vivo
Mus musculus [8] = assay: Toxicity in Mus musculus (mouse) transplanted with mouse EAC cells assessed as effect on lymphocytes level at 75 mg/kg, ip measured on day 13 post tumor implantation (reference value: 35.8 +/- 1.15%); type: organism-based, Ehrlich; design: dose 75 mg/kg, route intraperitoneal; conditions: in vivo
Mus musculus [9] = assay: Toxicity in Mus musculus (mouse) transplanted with mouse EAC cells assessed as effect on neutrophils level at 20 mg/kg, ip measured on day 13 post tumor implantation (reference value: 60.4 +/- 1.5%); type: organism-based, Ehrlich; design: dose 20 mg/kg, route intraperitoneal; conditions: in vivo
Mus musculus [10] = assay: Toxicity in Mus musculus (mouse) transplanted with mouse EAC cells assessed as increase in hemoglobin level at 20 mg/kg, ip measured on day 13 post tumor implantation (reference value: 7.5 +/- 0.01 g%); type: organism-based, Ehrlich; design: dose 20 mg/kg, route intraperitoneal; conditions: in vivo
Mus musculus [11] = assay: Toxicity in Mus musculus (mouse) transplanted with mouse EAC cells assessed as effect on lymphocytes level at 20 mg/kg, ip measured on day 13 post tumor implantation (reference value: 35.8 +/- 1.15%); type: organism-based, Ehrlich; design: dose 20 mg/kg, route intraperitoneal; conditions: in vivo
[12] = Antitumor activity against Mus musculus (mouse) EAC cells transplanted in mouse assessed as increase in life span at 20 mg/kg, ip relative to vehicle-treated control; type: functional, Ehrlich; conditions: route intraperitoneal
Mus musculus [13] = assay: Toxicity in Mus musculus (mouse) transplanted with mouse EAC cells assessed as effect on monocytes level at 20 mg/kg, ip measured on day 13 post tumor implantation (reference value: 1.4 +/- 0.24%); type: organism-based, Ehrlich; design: dose 20 mg/kg, route intraperitoneal; conditions: in vivo
Mus musculus [14] = assay: Toxicity in Mus musculus (mouse) transplanted with mouse EAC cells assessed as effect on WBC level measured per 10^3 cells at 20 mg/kg, ip on day 13 post tumor implantation (reference value: 19.49 +/- 0.26 mm3); type: organism-based, Ehrlich; design: dose 20 mg/kg, route intraperitoneal; conditions: in vivo
Mus musculus [15] = assay: Toxicity in Mus musculus (mouse) transplanted with mouse EAC cells assessed as effect on RBC level at 20 mg/kg, ip measured on day 13 post tumor implantation (reference value: 3.95 +/- 0.32 million/mm3); type: organism-based, Ehrlich; design: dose 20 mg/kg, route intraperitoneal; conditions: in vivo

SMILES | Activity (Mus musculus [1]) | Activity [2] | Activity (Mus musculus [3]) | Activity (Mus musculus [4]) | Activity [5] | Activity (Mus musculus [6]) | Activity (Mus musculus [7]) | Activity (Mus musculus [8]) | Activity (Mus musculus [9]) | Activity (Mus musculus [10]) | Activity (Mus musculus [11]) | Activity [12] | Activity (Mus musculus [13]) | Activity (Mus musculus [14]) | Activity (Mus musculus [15])
COc1ccccc1N1CCN(CC(=O)Nc2nc(-c3c(O)cc(C)oc3=O)cs2)CC1 | 12.52 g% | 58.11% | 4.8% | 4.12 million/mm3 | 27.08% | 25% | 15.7 10^3 cells/mm3 | 70% |  |  |  |  |  |  | 
Cc1cc(O)c(-c2csc(N3C(=O)CSC3c3ccc(Cl)cc3)n2)c(=O)o1 (stereo unspecified) | 8.54 g% | 49.73% | 3% | 2.76 million/mm3 | 20.83% | 52.2% | 18.2 10^3 cells/mm3 | 44% |  |  |  |  |  |  | 
Cc1cc(O)c(-c2csc(NC(=O)CN3CCN(c4ccc(F)cc4)CC3)n2)c(=O)o1 | 11.96 g% | 48.32% | 3% | 17.29 million/mm3 | -39.58% | 66% | 17.6 10^3 cells/mm3 | 31% |  |  |  |  |  |  | 
Cc1cc(O)c(-c2csc(N3C(=O)CSC3c3ccc(O)cc3)n2)c(=O)o1 (stereo unspecified) | 13.08 g% | 61.78% | 4.8% | 5.63 million/mm3 | 34.37% | 34% | 16.6 10^3 cells/mm3 | 61% |  |  |  |  |  |  | 
Cc1cc(O)c(-c2csc(NC(=O)CN3CCN(C)CC3)n2)c(=O)o1 | 10.64 g% | -1.007% | 1.4% | 5 million/mm3 | -1.04% | 63.2% | 19.6 10^3 cells/mm3 | 35.4% |  |  |  |  |  |  | 
Cc1cc(O)c(-c2csc(N3C(=O)CSC3c3cccc([N+](=O)[O-])c3)n2)c(=O)o1 (stereo unspecified) | 11.35 g% | 33.5% | 4% | 19.07 million/mm3 | -23.95% | 63.2% | 33.9 10^3 cells/mm3 | 32% |  |  |  |  |  |  | 
COc1cc(C2SCC(=O)N2c2nc(-c3c(O)cc(C)oc3=O)cs2)cc(OC)c1OC (stereo unspecified) | 10.48 g% | -1.047% | 2% | 17.78 million/mm3 | -1.04% | 58.2% | 19.2 10^3 cells/mm3 | 39.4% |  |  |  |  |  |  | 
O=c1[nH]cc(F)c(=O)[nH]1 [FLUOROURACIL] |  |  |  |  |  |  |  |  | 27.8% | 13.99 g% | 71% | 57.29% | 1.2% | 15.6 mm3 | 4.67 million/mm3
Cc1cc(O)c(-c2csc(NC(=O)CN3CCN(C(=O)c4ccco4)CC3)n2)c(=O)o1 | 13.21 g% | 46.59% | 4.6% | 6.28 million/mm3 | -12.5% | 34% | 48.6 10^3 cells/mm3 | 62% |  |  |  |  |  |  | 
